In one test the test system is CD4+ T cell. The conditions noted are these: CD4+ immunogenicity label (1/0) used in logistic regression; ELISpot response data from Ott et al.; cited from earlier work.
The subject of test [1] is IFNγ-producing T cells (PBMCs). In words: ex vivo IFNγ ELISpot assay. It counts as cell-based, human.
In test [2] the test system is rTCR Jurkat cells (CD69, CD25). The test is described as follows: recombinant TCR (rTCR) Jurkat functional assay. Type of test: cell-based, human. The conditions noted are these: co-culture with class II matched KAS116 cells.
Test [3] deals with CD4 or CD8 T cell depleted PBMCs. In words: CD4/CD8 depletions followed by IFNγ ELISpot or FluoroSpot. It counts as cell-based, human. How it is done:
CD4 or CD8 T cells were depleted from total PBMCs using Miltenyi MACS microbeads and columns. PBMCs were labeled with anti-CD4 or anti-CD8 microbeads before being run through a MACS Column placed in a MACS Separator magnet. Labeled cells remained in the column and the negative fractions were collected as either the CD8 or CD4 enriched population. Cells were then plated at 200,000 cells/well and stimulated overnight in an IFNγ ELISpot assay or FluoroSpot assay to detect IFNγ or IL-2.

In test [4] the target is T1, HLA-DP of Raji cells (DPA1*02:02/DPB1*01:01) (human, UniProt P20036 29-222; P04440 30-225, limits assumed).
T1 construct: whole, on cells; also called Raji_25mer DP
T1 MHC II alpha: not shown
T1 MHC II beta: not shown
In words: targeted MS of peptides eluted from HLA-DP IP (B7/21.1), Raji cells expressing KRAS G12C 25mer.

For test [5], the target named is T2, HLA-DP of DBB cells (DPA1*01:03/DPB1*04:01) (human, UniProt P20036 29-222; P04440 30-225, limits assumed).
T2 construct: whole, on cells; also called DBB_25mer DP
T2 sequence (P20036 29-222 limits assumed, chain 1 of 4, other chains not shown): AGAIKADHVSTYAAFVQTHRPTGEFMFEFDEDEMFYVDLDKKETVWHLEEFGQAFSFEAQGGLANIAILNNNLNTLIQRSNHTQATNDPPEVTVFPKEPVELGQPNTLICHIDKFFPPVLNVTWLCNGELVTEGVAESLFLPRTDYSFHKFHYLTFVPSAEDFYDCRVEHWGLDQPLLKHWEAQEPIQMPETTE
T2 sequence (P04440 30-225 limits assumed, chain 2 of 4, other chains not shown): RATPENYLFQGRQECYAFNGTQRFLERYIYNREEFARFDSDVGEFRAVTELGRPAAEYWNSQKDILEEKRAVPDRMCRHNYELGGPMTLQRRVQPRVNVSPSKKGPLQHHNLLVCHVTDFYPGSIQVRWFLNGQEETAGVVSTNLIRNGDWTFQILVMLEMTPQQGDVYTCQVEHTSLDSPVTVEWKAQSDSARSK
The test is described as follows: targeted MS of peptides eluted from HLA-DP IP (B7/21.1), DBB cells expressing KRAS G12C 25mer.

Take AASAAAFPSQRTSWEFLQSLVSIKQEK: the y in the test on CD4+ T cell was 1.

Turning to AAVRPEQRPAARGSRV, the y in the test on CD4+ T cell was 0.

Turning to ALLQNVELRRNVLVSPTPLAN, the y in the test with CD4+ T cell is given as 0.

ARLQSKEYPVIFKSIMRQRLISPQL: in the test on CD4+ T cell, the y is recorded as 0.

On to ASATEPANDSLFSPGAANLFSTYLAR, for which, in the test on CD4+ T cell, the y was 0.

DEQGREAELARSGPSAAGPVRLKPGLVPGL: in the test on CD4+ T cell, the y was 0.

Turning to DGAWPVLLDKFVEWYKDKQMS, the y in the test on CD4+ T cell is reported as 0.

Take DGGRQHSGPRRHSGAGPKPSSSEWAVCWAP: the y in the test on CD4+ T cell is listed as 0.

In the case of DGVSEEFWLVDLLPSTHYT, the y with CD4+ T cell is 1.

In the case of DKGHQFHVHPLLHSGDDLDP, the y in the test on CD4+ T cell is 0.

For DRASFLLTDYALSPDGSIRKATG, the y with CD4+ T cell is 1.

Turning to DRSVLAKKLKFVTLVFRHGDRSPID, the y in the test with CD4+ T cell is reported as 0.

Take DSYHLYAYHEELSATVPSQWKKIG: in the test on CD4+ T cell, the y is listed as 0.

Regarding DVTGPHLYSIYLHGSTDKLPYVTMGS, the y in the test with CD4+ T cell is 0.

Take EDLDANLRKLNFRLFVIRGQPAD: the y in the test with CD4+ T cell is recorded as 0.

Take EDSDKLFESKAELADHQKF: the y in the test on CD4+ T cell is 0.

As to EIHGKCENMTITSRGTTVTPTKETVSLG, the y in the test with CD4+ T cell is on record as 0.

On to ELQYRGRELRFNLIANQHLLAPGFVSETR, for which the y in the test on CD4+ T cell is 1.

Consider ERFWRNILLLSLHKGSLYPRIPGLGKE, for which the y in the test on CD4+ T cell is reported as 0.

On to EVVGGYTWPSGNIYQGYWAQGKR, for which, in the test with CD4+ T cell, the y is given as 0.

As for EYKLVVVGACG [Peptide_29], in test [1] (PBMCs from single donor SE-0386), the “response to single peptides from CD8 pools, ex vivo ELISpot” value is “demonstrated a response”. Moreover, in test [1] (patient G05-002-122 PBMCs following vaccination), the “responses to single 8-11mer peptides, ex vivo IFNγ ELISpot” value is “confirmed responses”. In addition, the “response of TCR969/TCR995 rTCR Jurkat cells to the peptide” value in test [2] is reported as “confirmed responses”. For the same molecule, the “responses in CD4 enriched (CD8 depleted) samples” value in test [3] (PBMCs from single donors, peptide #29: donor SE-0386) is listed as “demonstrated responses”. In addition, the “T cell response in healthy donor SE-0386” value in test [3] (class II long OLP pools deconvolution) is reported as “CD4^+ T cell-dependent response”.

FAKGFRESDLNSWPVAPRPLLSV: in the test with CD4+ T cell, the y is listed as 0.

With FCGTPDYIAPKIIAYQPYGKSVD, in the test with CD4+ T cell, the y is 0.

For FPVVQSTEDVFPQGLPNEYAFVT, in the test with CD4+ T cell, the y is listed as 0.

Turning to GDQYKATDFVADWAGTFKMVFTPKDGSG, the y in the test on CD4+ T cell is reported as 1.

For the molecule GHEHQPDMQKSLLRAAFFGKCFLDR, the y in the test with CD4+ T cell was 1.

On to GHQKLPGKIHLFEAEFTQVAKKEPDG, for which the y in the test on CD4+ T cell was 1.

Take GLTRISIQRAQPLPPCLPSFRPPTALQGLS: the y with CD4+ T cell is 0.

On to GPLQLPVTRKNMPLPGVVKLPPLPGS, for which, in the test with CD4+ T cell, the y was 0.

As for GRMSPSQFARVPGYVGSPLAAMNPK, the y in the test with CD4+ T cell is recorded as 1.

Consider GSGSQMPAWRTRGAISASSTQKTPTTRL, for which the y in the test with CD4+ T cell is listed as 0.

GSVLQFMPFTTVSELMKVSAMSSPKV: the y with CD4+ T cell is recorded as 0.

HASHLQEHQRIYTGEKPFKCDT: the y with CD4+ T cell is 0.

Turning to HLLQKQTSIQSPSLYGNSSPPLNK, the y in the test on CD4+ T cell is on record as 0.

As for KGEKNGMTFSSTKDYVNNV, the y in the test with CD4+ T cell is 0.

Regarding KHLPGVNFPGNQWNPVEGILPS, the y in the test with CD4+ T cell was 0.

With KLRTIPLSDNTIFRRICTIAKHLE, the y in the test on CD4+ T cell is 1.

For KMQRRNDDKSILMHGLVSLRESSRG, the y in the test with CD4+ T cell was 0.

As to LCPREEFLRLCKKIMMRSIQ, the y with CD4+ T cell is 0.

With LENNANHDETSFLLPRKESNIVD, the y in the test with CD4+ T cell is reported as 0.

LGETMGQVTEKLQPTYMEET: the y in the test with CD4+ T cell is recorded as 0.

With LHTHYDYVSALHPVSTPSKEYTSA, the y with CD4+ T cell is reported as 0.

Turning to LNTGLFRIKFKEPLENLI, in the test with CD4+ T cell, the y was 0.

For the molecule LSPREEFLRLCKKIMMRSIQ, the y in the test with CD4+ T cell is 1.

Regarding MAGPKGFQYRALYPFRRER, in the test with CD4+ T cell, the y is listed as 0.

In the case of MSQDIKKADEQIESMTYSTERKT, the y with CD4+ T cell is on record as 0.

As to NLKAPRLLFAPEYGPKLKLRALEDRHS, the y with CD4+ T cell was 0.

NNSKKKWFLFQDSKKIQVEQPQ: the y in the test on CD4+ T cell was 0.

In the case of NQVLASRYGIRGFSTIKIFQKGESPV, the y in the test with CD4+ T cell is 0.

PAHPSQGAVPPSRAAAEPHLKPSPSELQTA: the y in the test with CD4+ T cell was 1.

For PAPPPAVPKEHPAPPAPPPASAPTP, the y in the test with CD4+ T cell is reported as 0.

Consider PASAKSRREFDKIELAYRR, for which the y in the test on CD4+ T cell is listed as 0.

Consider PENDDLFMMPRIVDVTSLATEGG, for which, in the test with CD4+ T cell, the y is 0.

Take PETGEIQVKTFLDREQRESYELKV: in the test on CD4+ T cell, the y is given as 0.

Regarding PGGDSGELITDAHELGVAHPPGY, in the test with CD4+ T cell, the y was 0.

In the case of RGQIKLADFRLARLYSSEESR, the y in the test on CD4+ T cell is recorded as 0.

Consider RGRLPAGAVRTLLSQVNKVWDQSS, for which the y in the test on CD4+ T cell is on record as 0.

Take RLVLGKFGDLTNNFSSPHAR: the y with CD4+ T cell is recorded as 0.

As for RPAGRTQLLWTPAAPTAMAEVGPGHTP, the y in the test with CD4+ T cell is listed as 1.

As for RRGGALFASRPRFTPL, the y in the test on CD4+ T cell was 0.

For the molecule RYNSTAATNEVSEVTVFSKSPVT, the y in the test with CD4+ T cell was 0.

With SDAFSGLTALPQSILLFGP, the y in the test on CD4+ T cell was 0.

Regarding SGSPPLRVSVGDFSQEFSPIQEAQQD, in the test with CD4+ T cell, the y is listed as 1.

Regarding SHHTHSYQRYSHPLFLPGHRLDPPI, in the test on CD4+ T cell, the y is on record as 0.

In the case of SHKLESIKEITNFKDAKQLL, the y in the test on CD4+ T cell is 0.

Turning to SHLASLKNNVSPVLRSHSFSDPSPKFA, in the test with CD4+ T cell, the y is given as 1.

As for SHNELADSGIPENSFNVSSLVE, in the test on CD4+ T cell, the y was 0.

On to SHQIHSYQLYTHPLLHPWDHRD, for which the y in the test with CD4+ T cell was 0.

For the molecule SHTQTTLFHTFYELLIQKNKHK, in the test on CD4+ T cell, the y was 0.

In the case of SLPSNVLSSLVLVPLHTTPK, in the test on CD4+ T cell, the y is given as 0.

For the molecule SLRNNMFEISDRFIGIYKTYNITK, the y in the test with CD4+ T cell is recorded as 0.

Turning to SLTEESGGAVAFFPGNLSTSSSA, in the test on CD4+ T cell, the y was 0.

Take SPGPRTAPRPGSQKQAGKDWQ: the y with CD4+ T cell is on record as 0.

SPIKLVQKVASKIPFPDRITEESV: the y in the test on CD4+ T cell is recorded as 0.

SPQSGGAATLAAQARLQPVHLDVWGEHERG: the y in the test with CD4+ T cell is on record as 0.

For SRLQTRKNKKLALSSTPSNIAPSD, in the test with CD4+ T cell, the y is on record as 1.

As to SSHYKFSKPALQSQSISLVQQS, in the test on CD4+ T cell, the y is on record as 1.

With SSPLGRANGRRFANPRDSFSAMGFQR, the y in the test with CD4+ T cell was 0.

For the molecule STEVEPKESPHLARHRHLMKTLVKSLST, in the test on CD4+ T cell, the y is 0.

STLPVISDSTTKRRWSALVIGL: the y in the test on CD4+ T cell is recorded as 0.

As to STQHADLTIIDNIKEMNFLRRYK, the y with CD4+ T cell was 0.

On to TAQFAPSPGQPPALSPSYPGHRLPLQQG, for which the y in the test with CD4+ T cell was 0.

Take TETVNHHYLLFQNTDLGSFHDLLR: the y in the test on CD4+ T cell is recorded as 1.

As for TFPKKIQMLARDFLDEY, the y in the test on CD4+ T cell is listed as 0.

With TGKPEMDFVRLAQLFARARPMGLF, the y in the test on CD4+ T cell is recorded as 0.

Take TIKNSDKNVVLEHFG: the y with CD4+ T cell is 0.

On to TKLKSKAPHWTNCILHEYKNLSTS, for which the y with CD4+ T cell is 0.

Turning to TKRQVILLHTELERFLEYLPLRF, the y with CD4+ T cell was 0.

As for TRNSFALVPSLQRLMLRKVALKNVDSSPS, the y in the test with CD4+ T cell was 0.

TTPSGSAEYMASEVVEVFTDQAT: the y in the test on CD4+ T cell was 0.

Consider TTVTHERKQAKVVNPPIQEVGKGARK, for which, in the test on CD4+ T cell, the y is reported as 0.

VKQLERGEASVVDFKKNLEYAAT: the y with CD4+ T cell is 0.

Regarding VNGISSQPQVPFYPNLQKSQYYSTV, the y in the test with CD4+ T cell was 0.

In the case of VTLNDMKARQKALVRERERQLA, the y with CD4+ T cell is given as 0.

VTSPKASPVTFPAAAFPTASPANKD: in the test on CD4+ T cell, the y is given as 1.

For WCTEMKRVFGFPVHYTDVSNMS, the y in the test with CD4+ T cell was 0.

With WTPAAPTAMAEVGPGHTPAHPSQGAVPP, the y with CD4+ T cell is 1.

Turning to YLSHTLGAASSFMRPTVPPPQF, the y in the test on CD4+ T cell is recorded as 0.

B1: GACGVGKSALTIQLI (peptide)
peptide: GACGVGKSALTIQLI
notes: KRAS G12C peptide eluted from HLA class II of cells engineered to express a KRAS G12C construct; also called Peptide_099class2; KRAS MHC II Peptide 099
On to B1, for which, in test [4], the binding result is listed as “binds”.

B2: MTEYKLVVVGAC (peptide)
peptide: MTEYKLVVVGAC
notes: KRAS G12C peptide eluted from HLA class II of cells engineered to express a KRAS G12C construct; also called Peptide_098class2; KRAS MHC II Peptide 098
With B2, in test [5], the binding result is recorded as “binds”.

Values taken from patent US20260094669A1, “EPITOPE PREDICTION VIA A LEARNED GENOTYPE NETWORK ACROSS CLASS II MHC ALLELES” (Seattle Project Corp., priority 2023, published 2026).
